Measured values as given in ChEMBL document CHEMBL1157013, “Novel phospholipid analogues of pan-PPAR activator tetradecylthioacetic acid are more PPAR alpha selective” (Bioorg Med Chem Lett, 2010).
Activity calls are given as the source filed them.

Columns and labels:
Format in all cases: cell-based
[1] = target: T1, Peroxisome proliferator-activated receptor gamma (Homo sapiens) (UniProt P37231); assay: Activation of PPARgamma expressed in human MCF7 cells at 30 uM by luciferase reporter gene assay
T1 sequence (whole entry): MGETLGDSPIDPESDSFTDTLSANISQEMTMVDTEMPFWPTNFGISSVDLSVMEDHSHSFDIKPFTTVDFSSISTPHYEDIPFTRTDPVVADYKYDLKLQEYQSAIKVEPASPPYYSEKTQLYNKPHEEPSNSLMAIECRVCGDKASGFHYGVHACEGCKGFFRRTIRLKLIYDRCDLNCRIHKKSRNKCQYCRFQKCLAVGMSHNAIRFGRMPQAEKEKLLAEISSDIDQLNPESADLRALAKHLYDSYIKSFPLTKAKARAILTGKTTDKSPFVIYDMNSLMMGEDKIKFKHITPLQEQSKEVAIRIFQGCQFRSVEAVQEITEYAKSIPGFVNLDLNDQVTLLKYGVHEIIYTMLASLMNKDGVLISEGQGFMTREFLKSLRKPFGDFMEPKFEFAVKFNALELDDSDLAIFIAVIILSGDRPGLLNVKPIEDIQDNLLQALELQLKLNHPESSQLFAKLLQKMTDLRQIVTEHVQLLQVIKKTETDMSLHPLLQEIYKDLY

[2] = target: T2, Peroxisome proliferator-activated receptor alpha (Homo sapiens) (UniProt Q07869); assay: Activation of PPARalpha expressed in human MCF7 cells at 30 uM by luciferase reporter gene assay
T2 sequence (whole entry): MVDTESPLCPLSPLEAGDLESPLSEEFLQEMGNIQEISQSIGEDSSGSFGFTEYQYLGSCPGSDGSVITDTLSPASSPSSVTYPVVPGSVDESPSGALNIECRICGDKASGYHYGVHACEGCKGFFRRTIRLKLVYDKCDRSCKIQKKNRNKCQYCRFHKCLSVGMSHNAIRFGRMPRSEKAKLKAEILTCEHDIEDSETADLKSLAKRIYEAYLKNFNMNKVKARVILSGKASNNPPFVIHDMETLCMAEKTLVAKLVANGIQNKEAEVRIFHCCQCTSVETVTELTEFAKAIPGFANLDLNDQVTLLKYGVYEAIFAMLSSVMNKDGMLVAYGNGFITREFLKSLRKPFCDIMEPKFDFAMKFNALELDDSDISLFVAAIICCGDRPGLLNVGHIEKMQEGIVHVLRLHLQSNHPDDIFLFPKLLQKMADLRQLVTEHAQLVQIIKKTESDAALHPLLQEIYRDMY

[3] = target: T2, Peroxisome proliferator-activated receptor alpha (Homo sapiens); assay: Activation of PPARalpha expressed in human MCF7 cells at 10 uM by luciferase reporter gene assay
[4] = target: T3, Peroxisome proliferator-activated receptor delta (Homo sapiens) (UniProt Q03181); assay: Activation of PPARdelta expressed in human MCF7 cells at 10 uM by luciferase reporter gene assay
T3 sequence (whole entry): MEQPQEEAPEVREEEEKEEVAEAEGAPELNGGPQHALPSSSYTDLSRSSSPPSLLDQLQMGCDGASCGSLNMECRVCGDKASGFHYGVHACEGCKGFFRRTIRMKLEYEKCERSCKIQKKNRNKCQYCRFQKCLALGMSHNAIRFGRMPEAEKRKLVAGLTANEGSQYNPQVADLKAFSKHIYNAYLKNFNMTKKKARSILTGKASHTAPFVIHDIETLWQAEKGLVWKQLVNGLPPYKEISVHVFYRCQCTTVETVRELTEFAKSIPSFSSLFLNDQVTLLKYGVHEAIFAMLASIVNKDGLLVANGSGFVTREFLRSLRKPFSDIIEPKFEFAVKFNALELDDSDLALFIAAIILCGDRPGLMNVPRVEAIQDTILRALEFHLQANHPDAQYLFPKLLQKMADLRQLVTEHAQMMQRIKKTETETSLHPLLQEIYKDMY

[5] = target: T3, Peroxisome proliferator-activated receptor delta (Homo sapiens); assay: Activation of PPARdelta expressed in human MCF7 cells at 30 uM by luciferase reporter gene assay
[6] = target: T1, Peroxisome proliferator-activated receptor gamma (Homo sapiens); assay: Activation of PPARgamma expressed in human MCF7 cells at 10 uM by luciferase reporter gene assay

Measured: Activity

CCCCCCCCCCCCCCSCC(=O)OC[C@@H](O)COP(=O)([O-])OCC[N+](C)(C)C
active: all assays above

CCCCCCCCCCCCCCSCC(=O)OC[C@H](COP(=O)(O)OCC(O)CO)OC(=O)CSCCCCCCCCCCCCCC (stereo not given in full)
active: all assays above

CCCCCCCCCCCCCCSCC(=O)O
active: [1] | [2] | [5]
